Source: ChEMBL document CHEMBL3758112, “Synthesis and pharmacological evaluation of trifluoromethyl containing 4-(2-pyrimidinylamino)benzamides as Hedgehog signaling pathway inhibitors” (Bioorg Med Chem, 2016)

What was measured:
[1] = Inhibition of hedgehog signalling in mouse NIH3T3 cells stably transfected with Gli-luciferase construct incubated for 48 hrs by dual luciferase reporter gene assay; type: cell-based; settings: NIH3T3, 48 h
[2] = Half life in Sprague-Dawley rat at 1 mg/kg, iv measured during 2 mins to 24 hrs period post dose by LC/MS/MS method; type: ADME, organism-based; settings: in vivo
[3] = AUC (0 to t) in Sprague-Dawley rat at 1 mg/kg, iv measured during 2 mins to 24 hrs period post dose by LC-MS/MS method; type: ADME, organism-based; set-up: time 0.033-24 hr, dose 1 mg/kg, route intravenous; settings: in vivo
[4] = Apparent volume of distribution in Sprague-Dawley rat at 1 mg/kg, iv measured during 2 mins to 24 hrs period post dose by LC-MS/MS method; type: ADME, organism-based; settings: in vivo, read-out: Vz
[5] = Mean residence time (0 to t) in Sprague-Dawley rat at 1 mg/kg, iv measured during 2 mins to 24 hrs period post dose by LC/MS/MS method; type: ADME, organism-based; settings: in vivo
[6] = Cmax in Sprague-Dawley rat at 1 mg/kg, iv measured during 2 mins to 24 hrs period post dose by LC-MS/MS method; type: ADME, organism-based; set-up: dose 1 mg/kg, route intravenous; settings: in vivo
[7] = Clearance in Sprague-Dawley rat at 1 mg/kg, iv measured during 2 mins to 24 hrs period post dose by LC-MS/MS method; type: ADME, organism-based; settings: in vivo
[8] = system: NIH3T3; assay: Potency index, ratio of vismodegib IC50 to compound IC50 for inhibition of hedgehog signalling in mouse NIH3T3 cells stably transfected with Gli-luciferase construct; type: cell-based

Work on Cc1ccc(CN2CCOCC2)cc1NC(=O)c1ccc(Nc2ncc(C(F)(F)F)c(-c3cnn(C)c3)n2)cc1 yielded an IC50 [1] of 24.5 nM.
Cc1cccc(C)c1NC(=O)c1ccc(Nc2ncc(F)c(-c3ccc(OC(F)(F)F)cc3)n2)cc1 gave an IC50 [1] of 1.6 nM.
Work on COc1ccc(-c2nc(Nc3ccc(C(=O)Nc4cc(CN5CCCC5)ccc4C)cc3)ncc2C(F)(F)F)cn1 yielded an IC50 [1] of 9.35 nM.
For Cc1ccc(CN2CCN(C)CC2)cc1NC(=O)c1ccc(Nc2ncc(C(F)(F)F)c(-c3ccc(OC(F)(F)F)cc3)n2)cc1, the half-life [2] was 9.25 h, the AUC(0-t) [3] was 1240 ng·h/mL and the IC50 [1] was 5.19 nM. It also gave a Vd [4] of 9.22 L/kg, an MRT last [5] of 7.15 h and a Cmax [6] of 844 ng/mL. It also gave a clearance [7] of 11.6 mL/min/kg.
Cc1ccc(CN2CCOCC2)cc1NC(=O)c1ccc(Nc2ncc(C(F)(F)F)c(-c3ccccc3)n2)cc1 gave a half-life [2] of 2.32 h, an AUC(0-t) [3] of 807 ng·h/mL and an IC50 [1] of 102 nM. The Vd [4] was 4.13 L/kg, the MRT last [5] was 1.23 h and the Cmax [6] was 1190 ng/mL. It also gave a clearance [7] of 20.9 mL/min/kg.
With CCn1cc(-c2nc(Nc3ccc(C(=O)Nc4cc(CN5CCOCC5)ccc4C)cc3)ncc2C(F)(F)F)cn1 the IC50 [1] was 16.9 nM.
In the case of Cc1ccc(CN2CCCC2)cc1NC(=O)c1ccc(Nc2ncc(C(F)(F)F)c(-c3ccc(OC(F)(F)F)cc3)n2)cc1, the IC50 [1] is reported as 4.23 nM.
With Cc1ccc(CN2CCCCC2)cc1NC(=O)c1ccc(Nc2ncc(C(F)(F)F)c(-c3ccc(OC(F)(F)F)cc3)n2)cc1 the IC50 [1] was 3.12 nM.
With Cc1ccc(CN2CCCC2)cc1NC(=O)c1ccc(Nc2ncc(C(F)(F)F)c(-c3cnn(C)c3)n2)cc1 the IC50 [1] was 26.3 nM.
In the case of Cc1cnc(Nc2ccc(C(=O)Nc3c(C)cccc3C)cc2)nc1-c1ccc(OC(F)(F)F)cc1, the IC50 [1] is reported as 1.3 nM.
Cc1ccc(CN2CCOCC2)cc1NC(=O)c1ccc(Nc2ncc(C(F)(F)F)c(-c3ccccn3)n2)cc1 showed a half-life [2] of 1.03 h, an AUC(0-t) [3] of 826 ng·h/mL and an IC50 [1] of 14.2 nM. For the same compound, the Vd [4] was 1.8 L/kg, the MRT last [5] was 0.93 h and the Cmax [6] was 1420 ng/mL. The clearance [7] was 20.1 mL/min/kg.
With Cc1ccc(CN2CCOCC2)cc1NC(=O)c1ccc(Nc2ncc(C(F)(F)F)c(-c3ccc(OC(F)(F)F)cc3)n2)cc1 the half-life [2] was 8.63 h, the AUC(0-t) [3] was 1960 ng·h/mL and the IC50 [1] was 1.44 nM. For the same compound, the Ratio IC50 [8] was 5, the Vd [4] was 5.88 L/kg and the MRT last [5] was 4.95 h. The Cmax [6] was 2220 ng/mL and the clearance [7] was 7.82 mL/min/kg.
For O=C(NC1CCN(C(=O)CO)CC1)c1ccc(Nc2ncc(C(F)(F)F)c(-c3ccc(OC(F)(F)F)nc3)n2)cc1, the IC50 [1] was > 500 nM.
For Cc1ccc(CN(C)C)cc1NC(=O)c1ccc(Nc2ncc(C(F)(F)F)c(-c3ccc(OC(F)(F)F)cc3)n2)cc1, the IC50 [1] was 18.2 nM.
With Cc1ccc(CN2CCOCC2)cc1NC(=O)c1ccc(Nc2ncc(C(F)(F)F)c(-c3ccc(C#N)cc3)n2)cc1 the IC50 [1] was 4.24 nM.
In the case of O=C(c1ccc(Nc2ncc(C(F)(F)F)c(-c3ccc(OC(F)(F)F)nc3)n2)cc1)N1CCCC(N2CCOCC2)C1 (stereo unspecified), the IC50 [1] is reported as > 500 nM.
CS(=O)(=O)c1ccc(C(=O)Nc2ccc(Cl)c(-c3ccccn3)c2)c(Cl)c1 [VISMODEGIB] showed an AUC(0-t) [3] of 2460 ng·h/mL and an IC50 [1] of 7.2 nM.
In the case of CCN1CCN(Cc2ccc(C)c(NC(=O)c3ccc(Nc4ncc(C(F)(F)F)c(-c5ccc(OC(F)(F)F)cc5)n4)cc3)c2)CC1, the IC50 [1] is reported as 62.8 nM.
Cc1ccc(CN(C)C)cc1NC(=O)c1ccc(Nc2ncc(C(F)(F)F)c(-c3ccccc3)n2)cc1 gave an IC50 [1] of 24.9 nM.
With Cc1ccc(CN2CCOCC2)cc1NC(=O)c1ccc(Nc2ncc(C(F)(F)F)c(-c3cccnc3)n2)cc1 the IC50 [1] was 56.2 nM.
